US7635779B2, “Oxy substituted flavones as antihyperglycemic and antidyslipidemic agents” (Council of Scientific & Industrial Research, priority 2004, dated 2009)

Key:
Format in all cases: in vivo, mouse
Swiss mice [1] = test: Barbiturate induced hypnosis (sleeping time); details: for Change in barbiturate induced hypnosis: 100 mg/kg p.o.; for Sleep-duration (MEAN ± SE): 100 mg/kg p.o. 30 min prior to Pentobarbitone 45 mg/kg i.p.
Method: Sleeping time is calculated by the duration between loss and regain of righting reflex following administration of Pentobarbitone (45 mg/kg, i.p.). 34 and 49 in the dose 100 mg/kg, p.o. was administered 30 min prior to Pentobarbitone.

Swiss mice [2] = test: Gross behaviour: motor responses (SMA, gait, posture); set-up: key to SMA Score: scale 0-9; control group SMA = 4; details: for Effect on motor responses: 100 mg/kg; for SMA Score: 100 mg/kg p.o., control score 4
Method: 34 and 49 (100 mg/kg, p.o.) was administered in forenoon.
The gross behavioral parameters were observed as follows (based on Irwin protocol):
• i). Spontaneous motor activity [SMA]: Scored on a scale of 0-9 in which SMA in control group was assigned score 4. • ii). Posture/Position: Normal upright posture (+: present or −: absent) • iii). Gait: The mouse is allowed to move on the edge of the cage for 1 min and straight movements without fall or staggering is considered as normal. The gait is recorded as normal or abnormal; if abnormal description is provided. • iv). Ataxia: Any in-coordination in movements occurring in absence of involuntary movements. (+: present or −: absent) • v). Tremor: Involuntary movements (jerking of entire body or limbs) due to alternating contraction of muscles. (+: present or −: absent) • vi). Convulsions: Alternate contraction (flexion) and extension [clonic], or sustained extension [tonic] of limbs resulting into loss of upright posture (+: present or −: absent). • vii). Straub's tail: A sustained (>30 sec) raising of tail (making an angle >60° with the body) (+: present or −: absent) • viii). Catalepsy: A condition in which body or limbs remain passively in any position in which they are placed. It is tested by the placing forepaws on a metallic rod placed at height of 6 cm and if forepaws are not withdrawn within 10 sec catalepsy is considered to be positive (+: present or −: absent). • ix). Abnormal (Bizarre) behaviour: Stereotypy, head shaking, head searching, upright walking, and circling (+: present or −: absent). Results

Swiss mice [3] = test: Maximal electroshock seizures (MES); details: 100 mg/kg p.o.; for Numbers of mice showed seizures/numbers of mice tested: 48 mAmp for 0.2 sec
Method: Control and treated mice (−60 min) were subjected to electric shock (48 mAmp for 0.2 sec) through pinna electrode.

Swiss mice [4] = test: Gross behaviour: autonomic responses; details: 100 mg/kg p.o.
Method: 34 and 49 (100 mg/kg, p.o.) was administered in forenoon. […] Piloerection: Erection of body hairs (+: present or −: absent). • ii). Salivation: Secretion of saliva is observed as dripping of saliva from mouth, which is scored as 1=mild, 2=moderate and 3=severe as compared to control (0=no dripping). • iii). Lachrymation: Secretion and discharge of tears observed as shedding of tears around the lower eyelid, which is scored as 1=mild, 2=moderate and 3=severe as compared to control (0=no shedding). • iv). Palpebral closure: Ptosis (drooping of upper eyelids) present or absent • v). Exopthalmos: Protrusion (bulging) of eye ball; present or absent • vi). Defaecation: scored as 1=mild, 2=moderate and 3=severe as compared to control • vii). Urination: scored as 1=mild, 2=moderate and 3=severe as compared to control Results

Swiss mice [5] = test: Gross behaviour: sensory responses (reflexes, hot plate nociceptive response); details: 100 mg/kg p.o.; for Nociceptive reaction time MEAN ± SE: hot plate 55° C.
Method: • i). Reflexes: Pinna, corneal and righting reflexes were tested [Normal (control), sluggish or absent] • ii). Nociceptive Response: Reaction time to nociceptive response was observed by hot plate analgesia meter (Columbus Instruments,USA). The cut-off period for thermal nociception (55° C.) to mice was 15 sec. Results • i). Reflexes: Corneal, pinna and righting reflexes were intact in 34 and 49 treated mice. • ii).

Swiss mice [6] = test: Neuromuscular coordination (muscle tone, rota rod test); set-up: key to Muscle tone score (hind limb rigidity): 0=Flaccid; 1=Normal; 2=Rigid; details: for Effect on neuromuscular coordination as compared to control / Rota rod test-numbers of falls / Rota rod test-stay period at 1 h (MEAN ± SE): 100 mg/kg p.o.; for Rota rod test-stay period at 1 h (MEAN ± SE): test duration 2 min; for Muscle tone score (hind limb rigidity): resistance to passive flexion of hind-paw
Method: By resistance to passive flexion of each hind-paw
Score: 0=Flaccid, 1=Normal, 2=Rigid, • ii). Rota Rod Test
The period of stay on rotating rod (speed: 5 rotations/min; total duration of test 2 min) for each control and treated mice (−60 min) was recorded by Rotamex 4 (Columbus Instr., USA). The mice were trained to stay for period of 2 min on rotating rod and only trained mice were included in the study.

Row | Compound | Change in barbiturate induced hypnosis (Swiss mice [1]) | Sleep-duration (MEAN ± SE) (Swiss mice [1]) [min] | Effect on motor responses (Swiss mice [2]) | SMA Score (Swiss mice [2]; 0 min) | SMA Score (Swiss mice [2]; 30 min) | SMA Score (Swiss mice [2]; 60 min) | SMA Score (Swiss mice [2]; 90 min) | SMA Score (Swiss mice [2]; 120 min) | SMA Score (Swiss mice [2]; 150 min) | SMA Score (Swiss mice [2]; 180 min) | Anti-convulsant activity (Swiss mice [3]) | Numbers of mice showed seizures/numbers of mice tested (Swiss mice [3]) | Effect on autonomic responses (Swiss mice [4]) | Corneal, pinna and righting reflexes (Swiss mice [5]) | Effect on nociceptive reaction time as compared to control (Swiss mice [5]) | Sensory responses (Swiss mice [5]) | Nociceptive reaction time MEAN ± SE (Swiss mice [5]; 30 min) [s] | Nociceptive reaction time MEAN ± SE (Swiss mice [5]; 60 min) [s] | Nociceptive reaction time MEAN ± SE (Swiss mice [5]; 90 min) [s] | Nociceptive reaction time MEAN ± SE (Swiss mice [5]; 120 min) [s] | other results
1 | CC(C)(C)NCC(O)COc1ccc2c(=O)cc(-c3cc(OCc4ccccc4)cc(OCc4ccccc4)c3)oc2c1 (stereo not shown) [Compound 34, 7-(3-tert-Butylamino-2-hydroxy-propoxy)-3′,5′-dibenzyloxy-flavone] | did not show any significant change | 122.5 ± 16.7 | did not show any significant effect | 4 | 4 | 4 | 4 | 4 | 4 | 4 | did not show any significant anti-convulsant activity | 5/5 | did not show any significant effect | intact | no significant effect | not affected | 4.84 ± 0.3 | 4.30 ± 0.2 | 3.52 ± 0.1 | 3.08 ± 0.2 | Nociceptive reaction time MEAN ± SE (Swiss mice [5]; Pre-tt (0)): 3.52 ± 0.2 s; Effect on neuromuscular coordination as compared to control (Swiss mice [6]): did not show any significant effect; Rota rod test-numbers of falls (Swiss mice [6]; 30 min): 0; Rota rod test-numbers of falls (Swiss mice [6]; 60 min): 1/8; Rota rod test-stay period at 1 h (MEAN ± SE) (Swiss mice [6]): 111.87 ± 8.82 s; Rota rod test-numbers of falls (Swiss mice [6]; 90 min): 0; Rota rod test-numbers of falls (Swiss mice [6]; 180 min): 0; Rota rod test-numbers of falls (Swiss mice [6]; Pre-tt (0)): 0; Muscle tone score (hind limb rigidity) (Swiss mice [6]): 1
2 | CC(C)NCC(O)COc1ccc2c(=O)cc(-c3cc(O)cc(O)c3)oc2c1 (stereo not shown) [Compound 49, 3′,5′-Dihydroxy-7-(2-hydroxy-3-iso-propylamino-propoxy)-flavone] | did not show any significant change | 103.4 ± 15.27 | did not show any significant effect | 4 | 4 | 4 | 4 | 4 | 4 | 4 | did not show any significant anti-convulsant activity | 5/5 | did not show any significant effect | intact | no significant effect | not affected | 4.66 ± 0.6 | 4.10 ± 0.2 | 3.66 ± 0.3 | 3.45 ± 0.1 | Nociceptive reaction time MEAN ± SE (Swiss mice [5]; Pre-tt (0)): 4.61 ± 0.2 s; Effect on neuromuscular coordination as compared to control (Swiss mice [6]): did not show any significant effect; Rota rod test-numbers of falls (Swiss mice [6]; 30 min): 0; Rota rod test-numbers of falls (Swiss mice [6]; 60 min): 1/8; Rota rod test-stay period at 1 h (MEAN ± SE) (Swiss mice [6]): 112.25 ± 7.75 s; Rota rod test-numbers of falls (Swiss mice [6]; 90 min): 0; Rota rod test-numbers of falls (Swiss mice [6]; 180 min): 0; Rota rod test-numbers of falls (Swiss mice [6]; Pre-tt (0)): 0; Muscle tone score (hind limb rigidity) (Swiss mice [6]): 1
